From patent US20250066322A1, “SUBSTITUTED HETEROCYCLIC COMPOUNDS” (BRISTOL-MYERS SQUIBB COMPANY, priority 2021, published 2025)

system: IFNα-Induced STAT Phosphorylation (pSTAT5); assay: IFNα-Induced STAT Phosphorylation in Human Whole Blood; type: cell-based; conditions: 1 h incubation with compound, then 1000 U/mL recombinant human IFNα A/D for 15 min, pSTAT5 in CD3 positive population, read-out: Human Whole blood IFNa pSTAT5 IC50
Protocol: IFNα-Induced STAT Phosphorylation in Human Whole Blood
After an hour long incubation with compound, human whole blood (drawn with ACD-A as anticoagulant) was stimulated with 1000 U/mL recombinant human IFNα A/D (R&D Systems 11200-2) for 15 min. The stimulation was stopped by adding Fix/Lyse buffer (BD 558049). Cells were stained with a CD3 FITC antibody (BD 555916), washed, and permeabilized on ice using Perm III buffer (BD 558050). Cells were then stained with an Alexa-Fluor 647 pSTAT5 (pY694) antibody (BD 612599) for 60 min prior to analysis on the iQue Plus. The amount of pSTAT5 expression was quantitated by median fluorescence intensity after gating on the CD3 positive population.

SMILES | IC50 [nM]
[2H]C([2H])([2H])NC(=O)c1nnc(NC(=O)C2CC2C)cc1Nc1ncccc1S(=O)(=O)C(F)F (single isomer, unassigned) [Example 13a, 4-((3-((difluoromethyl)sulfonyl)pyridin-2-yl)amino)-N-(methyl-d3)-6-(2-methylcyclopropane-1-carboxamido)pyridazine-3-carboxamide] | 110
[2H]C([2H])([2H])NC(=O)c1nnc(NC(=O)C2CC2C)cc1Nc1ncccc1S(=O)(=O)C(F)F (single isomer, unassigned) [Example 13b, 4-((3-((difluoromethyl)sulfonyl)pyridin-2-yl)amino)-N-(methyl-d3)-6-(2-methylcyclopropane-1-carboxamido)pyridazine-3-carboxamide] | 10
CCC(=O)c1cnc(NC(=O)C2CC2C)cc1Nc1ncccc1S(=O)(=O)C(F)F (single isomer, unassigned) [Example 21a, N-(4-((3-((difluoromethyl)sulfonyl)pyridin-2-yl)amino)-5-propionylpyridin-2-yl)-2-methylcyclopropane-1-carboxamide] | 1400
CCC(=O)c1cnc(NC(=O)C2CC2C)cc1Nc1ncccc1S(=O)(=O)C(F)F (single isomer, unassigned) [Example 21b, N-(4-((3-((difluoromethyl)sulfonyl)pyridin-2-yl)amino)-5-propionylpyridin-2-yl)-2-methylcyclopropane-1-carboxamide] | 50
CCC(=O)c1cnc(NC(=O)[C@@H]2CC23CC3)cc1Nc1ncccc1S(=O)(=O)C(F)F [Example 17] | 960

same assay, conditions: Homo sapiens, 1 h incubation with compound, then 1000 U/mL recombinant human IFNα A/D for 15 min, pSTAT5 in CD3 positive population, read-out: Human Whole blood IFNa pSTAT5 IC50

SMILES | IC50 [nM]
[2H]C([2H])([2H])NC(=O)c1nnc(NC(=O)C2CC2)cc1Nc1ncccc1S(=O)(=O)C1CC1 [Example 1, 6-(cyclopropanecarboxamido)-4-((3-(cyclopropylsulfonyl)pyridin-2-yl)amino)-N-(methyl-d3) pyridazine-3-carboxamide] | 70
[2H]C([2H])([2H])NC(=O)c1nnc(NC(=O)OC)cc1Nc1ncccc1S(=O)(=O)C1CC1 [Example 2, methyl (5-((3-(cyclopropylsulfonyl)pyridin-2-yl)amino)-6-((methyl-d3)carbamoyl)pyridazin-3-yl)carbamate] | 670
CCC(=O)c1cnc(NC(=O)C2CC2)cc1Nc1ncccc1S(=O)(=O)C1CC1 [Example 3, N-(4-((3-(cyclopropylsulfonyl)pyridin-2-yl)amino)-5-propionylpyridin-2-yl)cyclopropanecarboxamide] | 590
[2H]C([2H])([2H])NC(=O)c1nnc(NC(=O)C2CC2)cc1Nc1ncccc1S(=O)(=O)C(F)F [Example 4, 6-(cyclopropanecarboxamido)-4-((3-((difluoromethyl)sulfonyl)-pyridin-2-yl)amino)-N-(methyl-d3)pyridazine-3-carboxamide] | 30
[2H]C([2H])([2H])NC(=O)c1nnc(NC(=O)OC)cc1Nc1ncccc1S(=O)(=O)C(F)F [Example 5, methyl (5-((3-((difluoromethyl)-sulfonyl)pyridin-2-yl)amino)-6-((methyl-d3)carbamoyl)-pyridazin-3-yl)carbamate] | 250
[2H]C([2H])([2H])NC(=O)c1nnc(NC(=O)N(C)C)cc1Nc1ncccc1S(=O)(=O)C(F)F [Example 6, 4-((3-((difluoromethyl)sulfonyl)pyridin-2-yl)amino)-6-(3,3-dimethylureido)-N-(methyl-d3)pyridazine-3-carboxamide] | 210
CCC(=O)c1cnc(NC(=O)C2CC2)cc1Nc1ncccc1S(=O)(=O)C(F)F [Example 15, N-(4-((3-((difluoromethyl)sulfonyl)pyridin-2-yl)amino)-5-propionylpyridin-2-yl)cyclopropanecarboxamide] | 150
CCC(=O)c1cnc(NC(=O)N(C)C)cc1Nc1ncccc1S(=O)(=O)C(F)F [Example 16, 3-(4-((3-((difluoromethyl)sulfonyl)pyridin-2-yl)amino)-5-propionylpyridin-2-yl)-1,1-dimethylurea] | 980
CCC(=O)c1cnc(NC(=O)[C@H]2C[C@@H]2C)cc1Nc1ncccc1S(=O)(=O)C(F)F [Example 18, (1S,2S)-N-(4-((3-((difluoromethyl)sulfonyl)pyridin-2-yl)amino)-5-propionylpyridin-2-yl)-2-methylcyclopropane-1-carboxamide] | 850
CCC(=O)c1cnc(NC(=O)[C@H]2C[C@@H]2F)cc1Nc1ncccc1S(=O)(=O)C(F)F [Example 20, (1R,2S)-N-(4-((3-((difluoromethyl)sulfonyl)pyridin-2-yl)amino)-5-propionylpyridin-2-yl)-2-fluorocyclopropane-1-carboxamide] | 460
CCC(=O)c1cnc(Nc2cccc(F)n2)cc1Nc1ncccc1S(=O)(=O)C(F)F [Example 22, 1-(4-((3-((difluoromethyl)sulfonyl)pyridin-2-yl)amino)-6-((6-fluoropyridin-2-yl)amino)pyridin-3-yl)propan-1-one] | 220
